The source of these data is patent EP3381907A1, “SYMMETRICAL 2-AMINOPHENYL-BENZAZOLYL-5-ACETATE COMPOUNDS AND THEIR USE AS ANTI-HEPARANASE” (Leadiant Biosciences SA, priority 2017, dated 2018).

What is called inhibition is the change of the read-out against control, counted positive when it falls. A word on the IC50: it is the midpoint of a concentration-inhibition curve.

The subject of assay [1] is U87MG (human glioblastoma astrocytoma). Briefly: SRB Cell Cytotoxicity Assay, U87MG. It counts as cell-based. To be noted: U-87 MG, 72h treatment, read-out: Concentration (µM) of test compounds at which the cell growth is inhibited by 50 %. U87MG. An excerpt: (§1) SRB Cell Cytotoxicity Assay is an assay based upon the quantitative staining of cellular proteins by sulforhodamine B (SRB). This assay can be used for high-throughput drug screening (Vichai & Kirkitara, Nature Protocol. 2006, 1, 112). Sulforhodamine B is an anionic aminoxanthene dye that forms an electrostatic complex with the basic amino acid residues of proteins under moderately acid conditions, which provides a sensitive linear response.
(§2) To assess a putative antiproliferative activity of the selected compounds, HT1080 (human fibrosarcoma), U87MG (human glioblastoma astrocytoma) and U2OS (human osteosarcoma) cell lines were treated for 72h, in triplicate, with increasing concentrations of heparanase inhibitors. Inhibition of cell proliferation was then measured by the classical colorimetric SRB Cell Cytotoxicity assay. Absorbance was measured by spectrophotometer at a wavelength of 510 nm and cell proliferation was determined as percent with respect to control cells (cells treated with the vehicle alone). EC50 values were then determined by GraphPad Prism.

The subject of assay [2] is HT1080 (human fibrosarcoma). The assay is described as follows: Matrigel cell invasion assay, HT1080. It counts as cell-based. Here is the method:
(§3) Heparanase inhibitors were then evaluated for their activity on the invasive potential of HT1080 (human fibrosarcoma), U87MG (human glioblastoma astrocytoma) and U2OS (human osteosarcoma) human cell lines, using the Matrigel cell invasion assay which allows to assess the cell invasion ability of malignant and normal cells.
(§4) Invasion assay was performed using BioCoat cell culture inserts (BioCoat 8.0µm PET Membrane 24 Well Permeable Supports, Corning). Filters were coated with 100 µl of 300 µg/ml Matrigel dissolved in coating buffer (0.01 M Tris pH 8.0, 0.7% NaCl) (Becton-Dickinson Sciences). DMEM (Dulbecco's Modified Eagle's Medium) containing 5% FBS was added to the lower chambers. Cells were pre-treated with heparanase inhibitors for 24 h, detached and added to the upper chambers in media containing the inhibitors. Cells were allowed to invade for 24 h at 37°C in a CO2 incubator and then unmigrated cells were removed from the upper chamber with a cotton swab. The invading cells were fixed, stained with 0.1% crystal violet for 10 min at room temperature, photographed and counted under inverted microscope.
(§5) Test compounds were analyzed at fixed concentration (2.5 µM) for several fields, in duplicates. Activity of test compounds was compared to the reference compound. Activity of most interesting compound was confirmed in a second cell invasion assay. Data were expressed as the percent invasion with respect to cell migration through uncoated insert membrane (see Table 3 below)
(§6) Table 3. […] In Invasion assay, data were expressed as the percent invasion (range) with respect to cell migration through uncoated insert membrane. In Adhesion assay, data were expressed as the percent of adhesion with respect to the control (100%). • Legend • ++: 50-90% • + : < 50% • - : Not Active

Assay [3] deals with HT1080 (human fibrosarcoma). Briefly: Cell adhesion assay on matrigel coated wells, HT1080. Particulars: percent of adhesion with respect to the control (100%). Type of assay: cell-based. As for the experimental part:
(§7) Cell surface, non-integrin molecules such as heparan sulfate proteoglycans (HSPGs) may be involved in the regulation of early adhesive stages of cell-ECM interactions. A cell adhesion assay has been employed to determine if the newly designed heparanase inhibitors were able to interfere with adhesion properties of cancer cells.
(§8) HT1080 (human fibrosarcoma) and U87MG (human glioblastoma astrocytoma) cells were treated for 18-20 h with test compounds in complete medium supplemented with 10% FCS. Then cells were collected, washed in complete medium, and added to matrigel coated wells in triplicate, at previously identified optimal seeding density, and incubated at 37 °C in complete medium for times ranging from 15 minutes to 4h, according to the cell line. After incubation, the wells were washed three times with serum-free medium and the remaining firmly attached cells were stained with crystal-violet 0.1%. Optical density was measured at 560 nm by Victor 3 (Perkin-Elmer) plate analyzer. Each experiment was repeated three times.
as §6

Assay [4] concerns HT1080 (human fibrosarcoma). Briefly: SRB Cell Cytotoxicity Assay, HT1080. Type of assay: cell-based. To be noted: HT-1080, HT1080, 72h treatment, read-out: Concentration (µM) of test compounds at which the cell growth is inhibited by 50 %. HT1080.
Excerpt: as §1, §2

For assay [5], the system named is U87MG (human glioblastoma astrocytoma). Briefly: Matrigel cell invasion assay, U87MG. Type of assay: cell-based. Also noted: key to Invasion Assay Inhibition U87MG: ++: 50-90%; +: < 50%; -: Not Active. Here is the method:
as §3, §4, §5, §6

Assay [6] has the same test system. The assay is described as follows: Cell adhesion assay on matrigel coated wells, U87MG. Type of assay: cell-based. Particulars: percent of adhesion with respect to the control (100%). Here is the method: as §7, §8, §6
The target in a further assay is T1, heparanase (Homo sapiens, UniProt Q9Y251).
T1 sequence (Q9Y251 158-543 limits assumed): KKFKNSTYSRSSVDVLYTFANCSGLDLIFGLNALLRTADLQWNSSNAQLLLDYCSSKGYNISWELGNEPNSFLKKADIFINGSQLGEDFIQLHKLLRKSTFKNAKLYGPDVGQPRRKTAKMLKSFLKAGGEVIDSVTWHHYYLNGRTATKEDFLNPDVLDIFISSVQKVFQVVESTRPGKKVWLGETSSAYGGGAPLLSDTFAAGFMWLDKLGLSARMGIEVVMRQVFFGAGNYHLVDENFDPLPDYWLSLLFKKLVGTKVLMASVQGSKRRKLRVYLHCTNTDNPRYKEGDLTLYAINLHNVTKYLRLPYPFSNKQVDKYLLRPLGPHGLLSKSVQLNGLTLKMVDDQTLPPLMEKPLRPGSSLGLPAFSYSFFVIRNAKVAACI
T1 sequence (Q9Y251 36-109 limits assumed): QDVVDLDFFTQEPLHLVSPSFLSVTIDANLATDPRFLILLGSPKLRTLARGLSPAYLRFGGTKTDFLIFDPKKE
Briefly: AGA*IA assay: colorimetric fondaparinux cleavage assay for heparanase inhibition (WST-1). Type of assay: biochemical. To be noted: 2.5 nM heparanase, 100 µM fondaparinux, pH 5.0, 3 h at 37°C; class symbols. As for the experimental part:
All compounds were tested in a simple, accurate and robust microplate assay based on the cleavage of the synthetic heparin fragment, the pentasaccharide Fondaparinux (AGA*IA). This assay was originally developed by Hammond and coworkers [Hammond E, Li CP, Ferro V. Development of a colorimetric assay for heparanase activity suitable for kinetic analysis and inhibitor screening. Anal. Biochem. 396(1), 112-116 (2010)], where Fondaparinux corresponds to the methyl glycoside of the antithrombin III (ATIII)-activating pentasaccharide sequence of heparin. Fondaparinux is cleaved by heparanase to generate a reducing disaccharide, which can be quantitatively measured via a colorimetric or a fluorescence assay, the last by the fluorescent sensor polymer-H [Schiemann S, Lühn S, Alban S. Development of both colorimetric and fluorescence heparinase activity assays using fondaparinux as substrate. Anal. Biochem. 427(1), 82-89 (2012)].
The assay measures the appearance of the disaccharide product of heparanase-catalyzed fondaparinux cleavage colorimetrically using the tetrazolium salt WST-1. Assay was essentially performed as described with minor modifications. Briefly, NUNC ELISA 96-well plates were pre-treated with a solution of 4% BSA (bovin serum albumin) in phosphate-buffered saline containing 0.05% Tween 20 (PBST), for 2 h at 37°C, then washed three times with PBST, dried by tapping on paper towel and stored at -20°C. Before use, once again, the plates were washed with PBST.
Assay was carried out with 100 µl/well of assay solution containing 40 mM sodium acetate buffer (pH 5.0), 100 µM fondaparinux, 2.5 nM heparanase and serial dilutions of test compounds (tested in triplicate). Plates were sealed with adhesive tape and incubated, in the dark, for 3 h at 37°C, followed by development with 1.69 mM of the tetrazolium salt WST-1 solution in 0.1 M NaOH, for 1 h at 60°C. Then, the absorbance at 560 nm was measured through a microplate reader (Victor 3, Perkin Elmer).
Finally, the measurements were corrected by subtracting both the reagent background and the inner absorbance value of test compound.

The subject of assay [7] is U2OS (human osteosarcoma). Briefly: SRB Cell Cytotoxicity Assay, U2OS. Type of assay: cell-based. Particulars: 72h treatment, read-out: Concentration (µM) of test compounds at which the cell growth is inhibited by 50 %. U2OS.
Excerpt: as §1, §2

Assay [8] deals with U2OS (human osteosarcoma). Briefly: Matrigel cell invasion assay, U2OS. It counts as cell-based. Further details: key to Invasion Assay Inhibition U2OS: ++: 50-90%; +: < 50%; -: Not Active. As for the experimental part: as §3, §4, §5, §6

In the case of `C[C@H](NC(=O)Cc1ccc2oc(-c3ccc(NC(=O)Nc4ccc(-c5nc6cc(CC(=O)N[C@@H](C)C(=O)O)ccc6o5)cc4F)c(F)c3)nc2c1)C(=O)O` [Compound 27, (2S,2'S)-2,2'-((2,2'-(((Carbonylbis(azanediyl))bis(3-fluoro-4,1-phenylene))bis(benzo[d]oxazole-2,5-diyl))bis(acetyl))bis(azanediyl))dipropionic acid], the EC50 in assay [1], in assay [4] and in assay [7] was over 10 µM throughout. The inhibition at 2.5 µM was under 50% in assay [2] (HT-1080, HT1080, test compound at 2.5 µM, 24 h pre-treatment, 24 h invasion); 50 to 90% in assay [5] (Homo sapiens, U-87 MG, test compound at 2.5 µM, 24 h pre-treatment, 24 h invasion); under 50% in [8] (Homo sapiens, test compound at 2.5 µM, 24 h pre-treatment, 24 h invasion). Further, in assay [3] (HT1080, test compound at 2.5 µM), the “Adhesion Assay (%) HT1080” value was 90.94%. For the same compound, in assay [6] (test compound at 2.5 µM), the “Adhesion Assay (%) U87MG” value is reported as 61.10%. Also, the IC50 on heparanase fell in the range of 0.05 to 0.49 µM.

Turning to `Cc1ccc(C(=O)Nc2ccc(S(=O)(=O)O)c3cc(S(=O)(=O)O)cc(S(=O)(=O)O)c23)cc1NC(=O)c1cccc(NC(=O)Nc2cccc(C(=O)Nc3cc(C(=O)Nc4ccc(S(=O)(=O)O)c5cc(S(=O)(=O)O)cc(S(=O)(=O)O)c45)ccc3C)c2)c1` [Suramin, reference compound], the EC50 in assay [1], in assay [4] and in [7] was over 10 µM throughout. In assay [2] (HT-1080, HT1080, reference compound at 10 µM), the inhibition at 10 µM is under 50%. Also, the “Adhesion Assay (%) HT1080” value in [3] (HT1080, reference compound at 10 µM) is 72.98%. Also, the “Invasion Assay Inhibition U87MG” value in [5] (reference compound at 10 µM) was “-”. The “Adhesion Assay (%) U87MG” value in [6] (reference compound at 10 µM) came to 100%. Besides, the “Invasion Assay Inhibition U2OS” value in assay [8] (reference compound at 10 µM) is recorded as “-”.
